One assay deals with MDBK line. Briefly: MTT Cell Proliferation Assay, MDBK cells. It is filed as cell-based, bovine. The conditions noted are these: MDBK cells, second value of cell, read-out: MTT Assay IC50(A431/MDBK): MDBK. An outline of the steps:
(§1)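 Each concentration ran in quadruplicate across duplicate plates, with compounds serially diluted in DMSO and delivered at 0.5% DMSO in 0.5% FBS medium for 3 days.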

For assay [1], the system named is epithelial carcinoma A431 cell line. Nature of the assay: MTT Cell Proliferation Assay, A431 cells. It is filed as cell-based. The conditions noted are these: for IC50: first value of cell, read-out: MTT Assay IC50(A431/MDBK): A431; for MTT Assay IC50(A431/MDBK): ratio in parentheses: ratio MDBK IC50 / A431 IC50 (selectivity). An outline of the steps:
as §1

Another assay concerns the target T1, EGFR (Homo sapiens, UniProt P00533).
T1 construct: host or cells: A431
Briefly: EGFR in-cell Western (ICW) screening protocol (EGFR inhibition assay). Type of assay: cell-based. Also on record: ICW 1 / ICW 2 / ICW Avg: unit not given here. The conditions noted are these: ICW assay; for ICW Avg: average of runs 1 and 2; for ICW 1: run 1; for ICW 2: run 2. An outline of the steps:
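In-cell Western read-out: fixed A431 cells were co-stained for total EGFR and phospho-EGFR (Tyr1173; some runs Tyr1045). Before fixation, cells were serum-starved for 2 h, exposed to compound for 4 h, then given EGF for 10 min, usually at 10 ng/ml final (6.6 or 12.5 ng/ml in some runs).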

The mark [2] stands for this setting: Homo sapiens, A-431, A431 cells.

Like-named read-outs stand apart in the source and are kept apart here.

T1 sequence (P00533 25-1210): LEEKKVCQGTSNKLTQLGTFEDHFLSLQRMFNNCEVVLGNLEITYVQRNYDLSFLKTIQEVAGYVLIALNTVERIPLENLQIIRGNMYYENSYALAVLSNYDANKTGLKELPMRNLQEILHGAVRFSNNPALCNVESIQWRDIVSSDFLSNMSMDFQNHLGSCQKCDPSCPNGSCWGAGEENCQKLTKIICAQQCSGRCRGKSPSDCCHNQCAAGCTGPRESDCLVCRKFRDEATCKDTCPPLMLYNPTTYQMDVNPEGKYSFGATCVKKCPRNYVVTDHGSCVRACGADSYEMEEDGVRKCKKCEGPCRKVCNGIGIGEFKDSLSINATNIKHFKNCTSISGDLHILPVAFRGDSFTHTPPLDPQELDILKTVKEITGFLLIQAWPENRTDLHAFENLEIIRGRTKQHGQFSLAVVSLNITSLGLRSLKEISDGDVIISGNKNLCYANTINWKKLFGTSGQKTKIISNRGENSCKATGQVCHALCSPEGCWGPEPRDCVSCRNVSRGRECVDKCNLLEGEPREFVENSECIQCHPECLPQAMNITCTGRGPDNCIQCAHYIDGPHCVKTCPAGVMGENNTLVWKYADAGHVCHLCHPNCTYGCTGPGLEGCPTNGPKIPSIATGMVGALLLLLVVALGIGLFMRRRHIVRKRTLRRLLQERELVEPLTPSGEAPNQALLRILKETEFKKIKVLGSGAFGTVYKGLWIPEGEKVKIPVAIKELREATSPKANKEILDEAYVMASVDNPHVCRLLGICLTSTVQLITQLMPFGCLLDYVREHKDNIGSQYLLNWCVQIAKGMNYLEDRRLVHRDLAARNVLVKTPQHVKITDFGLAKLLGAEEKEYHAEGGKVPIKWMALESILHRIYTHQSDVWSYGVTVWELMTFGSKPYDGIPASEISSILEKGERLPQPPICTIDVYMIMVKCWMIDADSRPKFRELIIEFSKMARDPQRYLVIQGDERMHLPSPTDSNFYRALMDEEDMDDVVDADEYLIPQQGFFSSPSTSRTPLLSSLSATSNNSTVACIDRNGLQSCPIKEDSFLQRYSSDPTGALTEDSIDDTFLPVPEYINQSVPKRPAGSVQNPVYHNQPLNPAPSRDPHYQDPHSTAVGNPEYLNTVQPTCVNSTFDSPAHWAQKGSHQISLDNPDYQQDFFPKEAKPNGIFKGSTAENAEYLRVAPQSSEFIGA

With `COc1ccc2c(C)nc(Nc3nc(C)cc(-c4ccccc4)n3)nc2c1` [compound 12676], the IC50 with MDBK line (Bos taurus, MDBK) came out at 18.8 µM. For the same molecule, in assay [1] (setting [2]), the IC50 is 12.9 µM. Also, the “MTT Assay IC50(A431/MDBK): ratio in parentheses” value (from here on “MTT Assay IC50(A431/MDBK): ratio”) in assay [1] is given as 1.45. For the same molecule, on EGFR, the “ICW Avg” value came to 25.81, the “ICW 1” value stood at 28.01 and the “ICW 2” value worked out at 23.61.

As to `CCOC(=O)c1c(N)nc(Nc2nc(C)c3cc(OC)ccc3n2)nc1-c1ccccc1` [compound 12679], in the assay with MDBK line (Bos taurus, MDBK), the IC50 came to 42 µM. Besides, the IC50 in assay [1] (setting [2]) was found to be 15.1 µM. In addition, the “MTT Assay IC50(A431/MDBK): ratio” value in assay [1] was 2.78. Also, at EGFR, the “ICW Avg” value is given as 70.50, the “ICW 1” value was determined as 73.98 and the “ICW 2” value stood at 67.01.

For `CCOC(=O)c1c(N)nc(Nc2nc(C)c3cc(C)ccc3n2)nc1-c1ccccc1` [compound 12681], the IC50 with MDBK line amounted to 25.4 µM. Further, the IC50 in assay [1] (A431 cells) was determined as 15.6 µM. Moreover, in assay [1], the “MTT Assay IC50(A431/MDBK): ratio” value worked out at 1.63. Further, on EGFR, the “ICW Avg” value came out at 89.48, the “ICW 1” value is listed as 89.93 and the “ICW 2” value was found to be 89.02.

As for `CCCc1c(-c2ccccc2)nc(Nc2nc(C)c3ccccc3n2)[nH]c1=O` [compound 12732], the IC50 in the assay on MDBK line came out at 15 µM. Moreover, the IC50 in assay [1] (A431 cells) came out at 11.1 µM. The “MTT Assay IC50(A431/MDBK): ratio” value in assay [1] is on record as 1.35. For the same molecule, at EGFR, the “ICW Avg” value is given as 82.77, the “ICW 1” value is on record as 79.12 and the “ICW 2” value is on record as 86.41.

`CCCc1c(C)nc(Nc2nc(C)c3cc(C)cc(C)c3n2)[nH]c1=O` [compound 12736]: the IC50 in the assay on MDBK line was determined as 9.82 µM. Besides, the IC50 in assay [1] (A431 cells) worked out at 7.14 µM. For the same molecule, the “MTT Assay IC50(A431/MDBK): ratio” value in assay [1] was 1.38. Also, at EGFR, the “ICW Avg” value is listed as 43.43, the “ICW 1” value was 32.35 and the “ICW 2” value came out at 54.51.

With `C=CCc1c(C)nc(Nc2nc(C)c3cccc(OCC)c3n2)[nH]c1=O` [compound 12737], the IC50 in the assay on MDBK line (Bos taurus, MDBK) amounted to 6.33 µM. Further, the IC50 in assay [1] (setting [2]) came out at 14.7 µM. Besides, the “MTT Assay IC50(A431/MDBK): ratio” value in assay [1] was 0.43. For the same molecule, at EGFR, the “ICW Avg” value amounted to 42.27, the “ICW 1” value stood at 38.90 and the “ICW 2” value was determined as 45.65.

In the case of `C=CCc1c(C)nc(Nc2nc(C)c3cc(CC)ccc3n2)[nH]c1=O` [compound 12739], the IC50 in the assay with MDBK line (Bos taurus, MDBK) was determined as 9.17 µM. The IC50 in assay [1] (setting [2]) was determined as 15.9 µM. In addition, the “MTT Assay IC50(A431/MDBK): ratio” value in assay [1] came out at 0.58. In addition, on EGFR, the “ICW Avg” value stood at 34.03, the “ICW 1” value is 28.51 and the “ICW 2” value came to 39.54.

In the case of `CCCc1c(C)nc(Nc2nc(C)c3cccc(C)c3n2)[nH]c1=O` [compound 12742], in the assay with MDBK line, the IC50 is 18.9 µM. In addition, the IC50 in assay [1] (A431 cells) was 19.6 µM. The “MTT Assay IC50(A431/MDBK): ratio” value in assay [1] is 0.97. Besides, at EGFR, the “ICW Avg” value is on record as 49.20, the “ICW 1” value is 33.49 and the “ICW 2” value amounted to 64.92.

In the case of `C=CCc1c(C)nc(Nc2nc(C)c3cccc(OC)c3n2)[nH]c1=O` [compound 12746], in the assay with MDBK line (Bos taurus, MDBK), the IC50 was 11.9 µM. The IC50 in assay [1] (setting [2]) came to 17.9 µM. In assay [1], the “MTT Assay IC50(A431/MDBK): ratio” value is recorded as 0.67. Further, at EGFR, the “ICW Avg” value turned out to be 32.65, the “ICW 1” value turned out to be 18.02 and the “ICW 2” value was 47.28.

Regarding `Cc1nc(Nc2nc(C(C)C)cc(=O)[nH]2)nc2c(C)cccc12` [compound 12777], the IC50 in the assay on MDBK line (Bos taurus, MDBK) is 8.96 µM. Also, the IC50 in assay [1] (setting [2]) was 12.8 µM. Further, in assay [1], the “MTT Assay IC50(A431/MDBK): ratio” value came out at 0.70. At EGFR, the “ICW Avg” value is 30.77, the “ICW 1” value was 24.37 and the “ICW 2” value was 37.17.

As for `COc1cccc2c(C)nc(Nc3nc(-c4ccc(F)cc4)cc(=O)[nH]3)nc12` [compound 12778], the IC50 in the assay on MDBK line (Bos taurus, MDBK) was found to be 5.34 µM. Further, the IC50 in assay [1] (setting [2]) came out at 4.66 µM. Besides, the “MTT Assay IC50(A431/MDBK): ratio” value in assay [1] stood at 1.15. At EGFR, the “ICW Avg” value was 37.56, the “ICW 1” value is 31.05 and the “ICW 2” value came to 44.08.

These data come from patent US20140179681A1, “METHODS AND COMPOSITIONS OF TARGETED DRUG DEVELOPMENT” (priority 2010, published 2014).
